Reference: article PMC10964233, “Antigen-Mimic Nanoparticles in Ultrasensitive on-Chip Integrated Anti-p53 Antibody Quantification” (ACS Sensors, 2024)
pKd: −log10 of the molar value. Each block holds one substance with its values, some of them ahead of it.

What was measured:
[1] = test system: Con A-modified electrode interfaces; experiment: Antibody selectivity of Con A-modified electrode interfaces; format: binding; conditions: 1.0 mg/mL nonspecific protein; Figure S7
[2] = test system: DO-1 peptide/HRP-IONPs with Con A-modified SPCEs; experiment: Assay specificity (SWV responses of interferents); conditions: equivalent MAC immunoisolation conditions, Figure S17
Experimental: Following a 10 min incubation of the antibody–IONP immunocomplexes on Con A-modified SPCEs, and subsequent washing with PBS, 100 μL of the high-sensitivity TMB substrate was added and left to react for 5 min. Square-wave voltammetry (SWV) scans were then conducted from +1.0 to −0.5 V (vs Ag/AgCl), at an amplitude of 20 mV, a potential step of 2 mV, and a frequency of 50 Hz. […] Recovery assays were conducted using DO-1 antibodies spiked into 1.0 mg/mL BSA or 1.0% human serum (human male AB plasma, Sigma, UK).
To evaluate the performance in spiked samples, recovery tests were performed in 1.0 mg/mL BSA and diluted human serum.

[3] = biological target: Concanavalin A; experiment: SPR + other: electrochemical impedance spectroscopy; SPR at Con A-saturated gold chips with a BSA-saturated surface as reference (298 K, 30 uL/min, 10 mM PBS pH 7.4); EIS at Con A-modified SPCEs in 5 mM [Fe(CN)6]3-/4- PBS pH 7.4; both responses fitted to Langmuir-Freundlich isotherms, Kd from the plot mean

Substance: bovine serum albumin [BSA]
- Response at Con A interface relative to DO-1 antibody [1]: < 10%
- Voltammetric response relative to 50 ng/mL DO-1 antibody ([2]; 1.0 mg/mL): < 10%

Substance: immunoglobulin G
- Voltammetric response relative to 50 ng/mL DO-1 antibody ([2]; 10.0 μg/mL (antibody control)): < 10%

- pKd [3]: 7.87
Substance: monoclonal DO-1 antibody
